From the supplement of paper PMC4932681

Assays:
MCF-7 Tam1 [1] = experiment: relative IC50 (midpoint of fitted logistic curve, plateau may be below 50% inhibition; CellTiter-Glo viability); higher = less potent; settings: 4-OH-tamoxifen in medium 1 µM; 72 h
In short: (§1)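 Breast cancer cell lines and their resistant derivatives were seeded into 384-well plates containing library drugs at five concentrations across a 10 000-fold range, with resistant lines kept in medium with 1 μM of the selecting drug. After 72 h at 37 °C, CellTiter-Glo viability was read on a PHERAstar and normalised to vehicle-only and positive controls. Logistic dose–response fits in the Breeze pipeline gave drug sensitivity score, relative IC50 (curve midpoint) and top-dose inhibition.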

ZR-75-1 [2] = experiment: as above; settings: 72 h
In short: as §1

BT-474 [3] = experiment: as above; settings: 72 h
In short: as §1

MCF-7 [4] = experiment: as above; settings: 72 h
In short: as §1

ZR-75-1 Tam2 [5] = experiment: as above; settings: 4-OH-tamoxifen in medium 1 µM; 72 h
In short: as §1

T-47D [6] = experiment: as above; settings: 72 h
In short: as §1

T-47D Tam1 [7] = experiment: as above; settings: 4-OH-tamoxifen in medium 1 µM; 72 h
In short: as §1

ZR-75-1 Tam1 [8] = experiment: as above; settings: 4-OH-tamoxifen in medium 1 µM; 72 h
In short: as §1

T-47D Tam2 [9] = experiment: as above; settings: 4-OH-tamoxifen in medium 1 µM; 72 h
In short: as §1

BT-474 Tam1 [10] = experiment: as above; settings: 4-OH-tamoxifen in medium 1 µM; 72 h
In short: as §1

BT-474 Tam2 [11] = experiment: as above; settings: 4-OH-tamoxifen in medium 1 µM; 72 h
In short: as §1

MCF-7 Tam1 [12] = experiment: drug sensitivity score (DSS) (DSS (dimensionless)); higher = more sensitive; extreme values may be limits of the assay; settings: 4-OH-tamoxifen in medium 1 µM; 72 h
In short: as §1

ZR-75-1 [13] = experiment: as above; settings: 72 h
In short: as §1

BT-474 [14] = experiment: as above; settings: 72 h
In short: as §1

MCF-7 [15] = experiment: as above; settings: 72 h
In short: as §1

ZR-75-1 Tam2 [16] = experiment: as above; settings: 4-OH-tamoxifen in medium 1 µM; 72 h
In short: as §1

T-47D [17] = experiment: as above; settings: 72 h
In short: as §1

T-47D Tam1 [18] = experiment: as above; settings: 4-OH-tamoxifen in medium 1 µM; 72 h
In short: as §1

ZR-75-1 Tam1 [19] = experiment: as above; settings: 4-OH-tamoxifen in medium 1 µM; 72 h
In short: as §1

T-47D Tam2 [20] = experiment: as above; settings: 4-OH-tamoxifen in medium 1 µM; 72 h
In short: as §1

BT-474 Tam1 [21] = experiment: as above; settings: 4-OH-tamoxifen in medium 1 µM; 72 h
In short: as §1

BT-474 Tam2 [22] = experiment: as above; settings: 4-OH-tamoxifen in medium 1 µM; 72 h
In short: as §1

relative IC50 (MCF-7 Tam1 [1]) [nM]	relative IC50 (BT-474 [3]; 4-OH-tamoxifen in medium 0 µM) [µM]	relative IC50 (BT-474 [3]; 4-OH-tamoxifen in medium 1 µM) [µM]	relative IC50 (MCF-7 [4]; 4-OH-tamoxifen in medium 0 µM) [nM]	relative IC50 (MCF-7 [4]; 4-OH-tamoxifen in medium 1 µM) [nM]	relative IC50 (T-47D [6]; 4-OH-tamoxifen in medium 0 µM) [µM]	relative IC50 (T-47D [6]; 4-OH-tamoxifen in medium 1 µM) [µM]	relative IC50 (T-47D Tam1 [7]) [nM]	relative IC50 (T-47D Tam2 [9]) [nM]	relative IC50 (BT-474 Tam1 [10]) [nM]	relative IC50 (BT-474 Tam2 [11]) [nM]	Structure (SMILES)	relative IC50 (ZR-75-1 [2]; 4-OH-tamoxifen in medium 0 µM) [nM]	relative IC50 (ZR-75-1 [2]; 4-OH-tamoxifen in medium 1 µM) [nM]	relative IC50 (ZR-75-1 Tam2 [5]) [nM]	relative IC50 (ZR-75-1 Tam1 [8]) [nM]	drug sensitivity score (MCF-7 Tam1 [12])	drug sensitivity score (ZR-75-1 [13]; 4-OH-tamoxifen in medium 0 µM)	drug sensitivity score (ZR-75-1 [13]; 4-OH-tamoxifen in medium 1 µM)	drug sensitivity score (BT-474 [14]; 4-OH-tamoxifen in medium 0 µM)	drug sensitivity score (BT-474 [14]; 4-OH-tamoxifen in medium 1 µM)	drug sensitivity score (MCF-7 [15]; 4-OH-tamoxifen in medium 0 µM)	drug sensitivity score (MCF-7 [15]; 4-OH-tamoxifen in medium 1 µM)	drug sensitivity score (ZR-75-1 Tam2 [16])	drug sensitivity score (T-47D [17]; 4-OH-tamoxifen in medium 0 µM)	drug sensitivity score (T-47D [17]; 4-OH-tamoxifen in medium 1 µM)	drug sensitivity score (T-47D Tam1 [18])	drug sensitivity score (ZR-75-1 Tam1 [19])	drug sensitivity score (T-47D Tam2 [20])	drug sensitivity score (BT-474 Tam1 [21])	drug sensitivity score (BT-474 Tam2 [22])
316		0.388	187	515	0.408	> 10	174	184	217	363	CN1CC[C@H](c2c(O)cc(O)c3c(=O)cc(-c4ccccc4Cl)oc23)[C@H](O)C1 [Alvocidib (Flavopiridol)]	251	246	355	477	4.64	10.4	9.96	1.69	14.1	13.6	9.86	10.1	7.14	0	16.8	7.64	7.73	19.8	16.9
1200		0.0837	38.2	134	0.451		362	600	82.9	420	CC(C)(C)c1cnc(CSc2cnc(NC(=O)C3CCNCC3)s2)o1 [SNS-032]	243	315	297	308	2.67	12.3	9.55	0.78	15.8	20	11.8	11.1	7.36	1.24	8.4	9.78	4.33	23.8	14.4
> 10000	> 10	> 10	> 10000	> 10000	> 10	> 10	> 10000	> 10000	> 10000	> 10000	CNCc1ccc(-c2[nH]c3cc(F)cc4c3c2CCNC4=O)cc1	> 10000	> 10000	> 10000	> 10000	0	0	0	0	0	0	0	0	0	0	0	0	0	0	0
> 10000	> 10	> 10	> 10000		> 10	> 10	> 10000	> 10000	> 10000	> 10000	CN(C)/N=N/c1[nH]cnc1C(N)=O [Dacarbazine]	> 10000	> 10000	> 10000	> 10000	0	0	0	0	0	0	0.0214	0	0	0	0	0	0	0	0

The next lines start with the compound.

Structure (SMILES)	relative IC50 (MCF-7 Tam1 [1]) [nM]	relative IC50 (BT-474 [3]; 4-OH-tamoxifen in medium 0 µM) [µM]	relative IC50 (BT-474 [3]; 4-OH-tamoxifen in medium 1 µM) [µM]	relative IC50 (MCF-7 [4]; 4-OH-tamoxifen in medium 0 µM) [nM]	relative IC50 (MCF-7 [4]; 4-OH-tamoxifen in medium 1 µM) [nM]	relative IC50 (T-47D [6]; 4-OH-tamoxifen in medium 0 µM) [µM]	relative IC50 (T-47D [6]; 4-OH-tamoxifen in medium 1 µM) [µM]	relative IC50 (T-47D Tam1 [7]) [nM]	relative IC50 (T-47D Tam2 [9]) [nM]	relative IC50 (BT-474 Tam1 [10]) [nM]	relative IC50 (BT-474 Tam2 [11]) [nM]	relative IC50 (ZR-75-1 [2]; 4-OH-tamoxifen in medium 0 µM) [nM]	relative IC50 (ZR-75-1 [2]; 4-OH-tamoxifen in medium 1 µM) [nM]	relative IC50 (ZR-75-1 Tam2 [5]) [nM]	relative IC50 (ZR-75-1 Tam1 [8]) [nM]	drug sensitivity score (MCF-7 Tam1 [12])	drug sensitivity score (ZR-75-1 [13]; 4-OH-tamoxifen in medium 0 µM)	drug sensitivity score (ZR-75-1 [13]; 4-OH-tamoxifen in medium 1 µM)	drug sensitivity score (BT-474 [14]; 4-OH-tamoxifen in medium 0 µM)	drug sensitivity score (BT-474 [14]; 4-OH-tamoxifen in medium 1 µM)	drug sensitivity score (MCF-7 [15]; 4-OH-tamoxifen in medium 0 µM)	drug sensitivity score (MCF-7 [15]; 4-OH-tamoxifen in medium 1 µM)	drug sensitivity score (ZR-75-1 Tam2 [16])	drug sensitivity score (T-47D [17]; 4-OH-tamoxifen in medium 0 µM)	drug sensitivity score (T-47D [17]; 4-OH-tamoxifen in medium 1 µM)	drug sensitivity score (T-47D Tam1 [18])	drug sensitivity score (ZR-75-1 Tam1 [19])	drug sensitivity score (T-47D Tam2 [20])	drug sensitivity score (BT-474 Tam1 [21])	drug sensitivity score (BT-474 Tam2 [22])
O=P(O)(O)C(O)(Cn1ccnc1)P(=O)(O)O [Zoledronic acid]	> 10000	> 10	> 10	> 10000	> 10000	> 10	> 10	> 10000	> 10000	> 10000	> 10000	> 10000	> 10000	> 10000	> 10000	0	0	0	0	0	0	0	0	0	0	0	0	0	0	0
CN1CCN(c2ccc3nc(-c4c(N)c5c(F)cccc5[nH]c4=O)[nH]c3c2)CC1 [Dovitinib (CHIR-258)]	> 10000	> 10	> 10	> 10000	> 10000	> 10	> 10	> 10000	> 10000	> 10000	> 10000	> 10000	> 10000	> 10000	> 10000	0	0	0	0	0	0	0	0	0	0	0	0	0	0	0
O=C(O)C1(C(=O)O)CCC1.[NH2-].[NH2-].[Pt+2] [Carboplatin]	> 10000	> 10	> 10	> 10000	> 10000	> 10	> 10	> 10000	> 10000	> 10000	> 10000	> 10000	> 10000	> 10000	> 10000	0	0	0	0	0	0	0	0	0	0	0	0	0	0	0
CC(C)C[C@H](NC(=O)[C@H](Cc1ccccc1)NC(=O)c1cnccn1)B(O)O [Bortezomib]	39.9	0.0127	0.00372	6.82	44.5	0.00627	0.00831	2.79	5.5	3.55	5.98	73.1	31.4	8.96	20.1	11.3	9.65	10.7	13.2	29.1	19.9	14	16.4	25.6	23.7	30.4	13.9	26.5	29.5	26.7
